This note sets out measurements from patent US10011571B2, “Preparation method for aromatic heterocyclic compound used as selective JAK3 and/or JAK1 kinase inhibitor and application of aromatic heterocyclic compound” (SHENZHEN CHIPSCREEN BIOSCIENCES, LTD., priority 2014, dated 2018).

In assay [1] the test system is IL-2/JAK1 & 3/STAT5 (CTLL-2). Kind of assay: Intracellular activity assay, IL-2 induced STAT5 phosphorylation in CTLL-2. As to conditions: Mus musculus; inhibition of STAT5 phosphorylation, CTLL-2, IL-2 10 ng/mL. The assay is classed as cell-based. The text has this:
In this experiment, western blot (WB) and flow cytometry are used to evaluate the intracellular activities of the test compounds by comparing the relative levels of the signals of phosphorylated and non-phosphorylated STATs in 5 cell models, including U937, THP-1, CTLL-2, UT-7/EPO and activated human periphery blood cell (hPBC). The primary antibody and secondary antibody used in WB hybridization in this experiment are purchased from Cell Signaling Company (http://www.cellsignal.com). The fluorescence-labeled antibodies used in flow cytometry are purchased from eBiosciences Company (http://www.ebioscience.com).
CTLL-2 is a T-cell line, and its proliferation and growth depends on cytokine IL-2. […] The intracellular inhibitory activity of the compounds on JAK1/3 can be evaluated by detecting the change of the phosphorylation level of STAT5. […]
(2) Cell fixation and fluorescence labeling: the cells are fixed using paraformaldehyde (30 min), and subsequently treated for membrane permeability in chilled methanol (15 min). […]
(3) Detection by flow cytometry: the detection is carried out using Guava® easyCyte flow cytometer according to the instruction. The median fluorescent intensity (MFI) of a sample is detected using an appropriate cell population. […]

The target in assay [2] is JAK2 (Homo sapiens (Human), UniProt O60674). Kind of assay: Z'-LYTE enzymatic activity detection, JAK2. As to conditions: test compound 30 nM; for inhibition at 0.03 µM: read-out: JAK2 % inhibitory rate @30 nM. The assay is classed as biochemical. In outline:
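GST-tagged human recombinant kinases with Z′-LYTE peptides (Tyr6 for JAK1, Tyr4 for JAK2 and JAK3), ATP from kit, reacted 1 h at room temperature; development 1 h, ratio 445/520 nm at 400 nm excitation gives phosphorylation. Inhibition vs solvent control at 30 nM (JAK2, JAK3) or 300 nM (JAK1); tofacitinib as positive control.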

Chain of JAK2 (O60674 whole entry): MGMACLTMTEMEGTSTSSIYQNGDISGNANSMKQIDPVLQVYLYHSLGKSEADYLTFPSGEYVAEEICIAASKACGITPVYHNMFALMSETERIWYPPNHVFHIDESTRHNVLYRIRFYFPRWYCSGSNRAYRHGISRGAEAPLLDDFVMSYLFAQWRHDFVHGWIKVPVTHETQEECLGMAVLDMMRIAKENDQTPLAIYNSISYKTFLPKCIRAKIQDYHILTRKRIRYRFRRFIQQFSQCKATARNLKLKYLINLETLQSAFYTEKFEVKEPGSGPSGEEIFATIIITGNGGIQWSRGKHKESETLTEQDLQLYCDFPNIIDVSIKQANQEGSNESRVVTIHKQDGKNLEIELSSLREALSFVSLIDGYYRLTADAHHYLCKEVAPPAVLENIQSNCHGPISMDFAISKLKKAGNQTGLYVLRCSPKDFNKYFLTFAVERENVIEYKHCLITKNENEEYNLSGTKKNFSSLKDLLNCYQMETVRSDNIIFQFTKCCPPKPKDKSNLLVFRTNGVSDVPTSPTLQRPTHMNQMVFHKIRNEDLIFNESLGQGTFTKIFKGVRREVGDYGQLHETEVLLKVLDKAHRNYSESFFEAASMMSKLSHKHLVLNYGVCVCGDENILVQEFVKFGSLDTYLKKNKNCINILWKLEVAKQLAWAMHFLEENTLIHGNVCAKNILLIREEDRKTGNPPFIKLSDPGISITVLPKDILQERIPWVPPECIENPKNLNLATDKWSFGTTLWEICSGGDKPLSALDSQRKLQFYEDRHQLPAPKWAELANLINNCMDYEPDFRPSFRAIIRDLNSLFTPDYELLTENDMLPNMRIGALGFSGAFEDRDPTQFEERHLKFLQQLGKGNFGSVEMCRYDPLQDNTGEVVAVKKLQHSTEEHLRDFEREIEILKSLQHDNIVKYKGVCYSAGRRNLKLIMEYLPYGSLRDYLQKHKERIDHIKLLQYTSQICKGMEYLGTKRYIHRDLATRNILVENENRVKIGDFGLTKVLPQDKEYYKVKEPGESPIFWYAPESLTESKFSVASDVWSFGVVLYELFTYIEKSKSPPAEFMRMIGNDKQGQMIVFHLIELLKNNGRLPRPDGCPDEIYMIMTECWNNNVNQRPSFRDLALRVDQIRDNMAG

Usually IC50 stands for the concentration needed to halve the response being measured. Low values mean greater potency in that assay, high ones weaker potency in that assay. In the case of `C=CC(=O)N(C)c1cc(Nc2ncc(Cl)c(NCCCNC(=O)c3ccc(C#N)cc3)n2)ccc1F` [Example 7, N-(3-(5-chloro-2-(4-fluoro-3-(N-methylacrylamido)phenylamino)pyrimidinyl-4-amino)propyl)-4-cyano-benzamide], half-maximal inhibition in assay [1] (IC50) was put at 0.08 µM. In assay [2], the “JAK2 RV (ratio between the inhibitory rate of the test compound and that of Xeljanz)” value is 0.08; the inhibition at 0.03 µM was 5%.
`C=CC(=O)N(C)c1cc(Nc2ncc(Cl)c(NCCCNC(=O)c3ccc(C(F)(F)F)cc3)n2)ccc1F` [Example 22, N-(3-(5-chloro-2-(4-fluoro-3-(N-methylacrylamido)phenylamino)pyrimidinyl-4-amino)propyl)-4-trifluoromethylbenzamide]: the inhibition at 0.03 µM in assay [2] was found to be 0%.
Regarding `C=CC(=O)N(C)c1cc(Nc2ncc(Cl)c(NCCCNC(=O)c3ccc(F)cc3)n2)ccc1F` [Example 23, N-(3-(5-chloro-2-(4-fluoro-3-(N-methylacrylamido)phenylamino)pyrimidinyl-4-amino)propyl)-4-fluorobenzamide], the midpoint of inhibition in assay [1], the IC50, lay at 0.13 µM. Also, the inhibition at 0.03 µM in assay [2] was determined as 0%.
